Results reported in patent US20240262844A1, “PYRIDINIUM SALTS AND METHODS OF USE” (UNIVERSITY OF WYOMING, priority 2023, published 2024).
Where “and” joins values, the source holds several entries; their conditions need not be identical. Equal values may be shown once. Entries after “also recorded” stand apart in the source; their conditions may differ. Where a name gives a salt, the structure may show the parent alone.

Experiments:
HEK293T lysates = assay: Chemoproteomic profiling of HEK293T lysates (protein-level enrichment); assay type: biochemical, Human; conditions: for proteome labeling profile, streptavidin-HRP Western blot of elution profiles: 0-100 μM probe, with and without irradiation, before digestion; for number of proteins identified (from ≥2 unique peptides) with ≥2-fold enrichment versus DMSO: about 100 μM probe, 60 min incubation, 20 min irradiation (302 nm 1a, 320 nm 1b, 440 nm 2b)
Protocol: In lysate tryptophan probe treatment for protein-level characterization: HEK293T cell pellets were suspended in native lysis buffer (50 mM HEPES pH 7.5, 150 mM sodium chloride (NaCl), 1.5 mM MgCl2, 1 mM DTT, 0.8% NP-40, 5% glycerol, and 1x protease inhibitors (Thermo)) at 2x the pellet volume. The samples were sonicated on ice for 30 seconds at 20% amplitude with a 2 second pulse ON and 3 second pulse OFF. Cell debris was removed by centrifugation at 20,000×g for 20 minutes at 4° C. Protein concentration was determined by bicinchoninic acid (BCA) (Pierce) and diluted down to 5 mg/mL with ChemProt buffer (50 mM HEPES pH 7.5, 150 mM NaCl, 1.5 mM MgCl2, 1 mM DTT, 0.4% NP-40, and 1x protease inhibitors (Thermo). 5 mg cell lysates were treated with 100x stocks of the tryptophan probes (pyridinium salts 1a, 1b, and 2b) to generate final concentrations (0, 1, 10, and 100 μM) in 1% DMSO. Lysates were incubated for 1 hour at 4° C. followed by photo-activation at respective wavelengths for 20 minutes at 4° C. Excess probe was removed using Sephadex G-25 PD-10 desalting columns (GE Healthcare) pre-equilibrated with 50 mM HEPES pH 7.5, 150 mM NaCl, 1.5 mM MgCl2, and 0.4% NP-40. The samples were then treated with 100 μL Neutravidin resin as a 50% slurry (Peirce). The samples were incubated overnight on a rotating apparatus at R.T. The following day, the beads were transferred to a MobiCol column (Boca Scientific), washed 3× with phosphate buffered saline (PBS) containing 0.2% SDS, washed 3x with PBS, and the enriched proteins were eluted with 2×NuPAGE lithium dodecyl sulfate (LDS) containing 10 mM DTT (Pierce) and heated for 30 minutes at 55° C. The eluent was collected and subsequently treated with 20 mM iodoacetamide (Pierce) for 30 minutes at R.T. protected from light. Samples were passed through detergent removal columns (Pierce) that were pre-equilibrated with 50 mM HEPES pH 8.0. The samples were treated with 2.5 μg Trypsin/LysC (Promega) at 37° C. for 16 hours. The following day, the sample was collected and prepped for isobaric labeling with TMT reagents (Thermo) as specified by the manufacturer.
Quantitative proteomics by two-dimensional nano liquid chromatography-tandem mass spectrometry (nLC-MS/MS): For protein-level characterization, the TMT-labeled sample were reconstituted in 0.1% formic acid (FA)/2% acetonitrile for offline high-pH reversed phase separation (RP10) using a Dionex UltiMate 3000 high-performance liquid chromatography (HPLC) system with fraction collection using Chromeleon v.6.8 (Thermo) software. Separation was achieved on a Waters Xbridge C18 3.5 μm 2.1×150 mm HPLC column (Waters) using a flow rate of 250 μL min-1 and the following ternary gradient and conditions: mobile phase A=water (HPLC grade), mobile phase B=acetonitrile (HPLC grade), and mobile phase C=200 mM ammonium acetate, pH 10. Mobile phase C is held at 10% throughout gradient. Starting conditions are 89% mobile phase A and 1% mobile phase B, ramping mobile phase B to 80% over 65 min. Fractions were collected in 96-well plates at 100 see per well. Fractions were reduced down to 12 fractions, dried, and reconstituted in 0.1% FA/2% acetonitrile for nLC-MS/MS. All data were acquired using a Orbitrap Fusion Lumos coupled to an Easy-nLC 1200 nanoflow liquid chromatograph operating at 300 nL min^−1. Peptides were cleaned up using a 1 cm online custom trap then eluted on a custom 20 cm laser pulled 75 μm column with C18 resin. Peptides were quantified using the synchronous precursor selection (SPS-MS3) or HCD method for TMT quantitation with 120k MS1 resolving power, 50 ms max injection time and 100% AGC. MS2 spectra were selected using the top ten most abundant features with a charge state between 2-6 using CID (collision induced dissociation) in the ion trap. The AGC was set to 100% with an isolation width of 0.7. MS3 was performed on the top 10 most abundant MS2 features between 400-1600 amu with a collision energy of 55%, AGC of 250%, and 50k resolution. […]

[1] = Water solubility of salt forms; assay type: physicochemical; conditions: trifluoroacetate salt compared to the tetrafluoroborate salt
Protocol: Pyridinium salt 2c was synthesized by adapting general procedure A as follows: To a flame dried round-bottom flask equipped with a stir bar was added 4-(6-methoxynaphthalen-2-yl)-2,6-dimethylpyrylium tetrafluoroborate (S2) (80 mg, 0.23 mmol), 6-((4R,5S)-5-methyl-2-oxoimidazolidin-4-yl)hexyl 1-methylhydrazine-1-carboxylate S6 (110 mg, 0.404 mmol), and ethanol (1.2 mL) and stirred for 24 hours at 60° C. The reaction mixture was then concentrated using a rotary evaporator. The resulting residue was dissolved in dichloromethane and washed with 10% fluoroboric acid (HBF4, aqueous) (2×10 mL), saturated NaBF4 (aqueous) (2×10 mL), dried over […], filtered, and concentrated using a rotary evaporator. The resulting green solid was then sonicated in hexanes followed by decanting of the supernatant. This procedure was repeated 5 times and the resulting solid was dried under vacuum to obtain the tetrafluoroborate salt of 2c as a green solid (119 mg, 76%). The tetrafluoroborate salt of 2c was further purified by HPLC using general method B to yield the trifluoroacetate (X=TFA, CF3CO2^−) salt of 2c.

lysozyme (14.3 kDa) = target: T1, lysozyme (14.3 kDa) (Gallus gallus, UniProt P00698); assay: Photochemical labeling of lysozyme (LC/MS); assay type: biochemical, chicken; conditions: 500 μM pyridinium salt 2c, 300 μM glutathione
T1 construct: Lysozyme (from chicken egg white, >40,000 units/mg of protein); purchased Sigma Aldrich; host or cells: chicken egg white
T1 sequence (P00698 19-147): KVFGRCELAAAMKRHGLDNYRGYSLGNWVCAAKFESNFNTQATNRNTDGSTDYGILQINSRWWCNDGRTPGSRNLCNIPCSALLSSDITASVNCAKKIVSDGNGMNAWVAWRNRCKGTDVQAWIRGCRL
Protocol: General Procedure B: Photochemical Irradiation of Peptides and Proteins: To a 2 mL Pyrex LC/MS vial (Thermo model #03-391-39) were sequentially added solutions containing the desired biomolecule, glutathione (GSH), pyridinium salt, and ammonium acetate (NH4OAc). The resulting solution was diluted to a final volume of 500 μL and then sparged using nitrogen for a minimum of 30 minutes prior to irradiation. The actively sparging solution was then placed in an EvoluChem™ PhotoRedOx Box photoreactor that was equipped with a Kessil, PR160 427 nm LED Lamp and was then irradiated (100% lamp intensity) for the designated time at room temperature while maintaining active sparging. The resultant reaction mixture was then analyzed directly by LC/MS. Analysis of labeling outcomes using LC/MS was performed either by extracted ion chromatogram intensities (method A) or by integrating the area under the peaks associated with peptide content (method B). These values were totaled, and estimated percentages were assigned according to relative intensities of peaks or ion counts.
Labeling of Lysozyme with Pyridinium Salt 2a (Lysozyme-2a Conjugate). Labeling of lysozyme (14.3 kDa) with the pyridinium salt 2a was performed by following general procedure B using the following solutions: lysozyme (27 μL, 182 μM, 10 μM final concentration), pyridinium salt 2a (200 μL, 500 μM, 200 μM final concentration), NH4+OAc (100 μL, 100 mM, pH=6.9, 20 mM final concentration), glutathione (15 μL, 10 mM, 300 μM final concentration), and water (158 μL) with a 100% intensity irradiation time of 60 minutes. The reaction mixture was analyzed directly by LC/MS using method A and was estimated to have proceeded in >95% conversion and a 10.9:1 mono:di labeled ratio and 10% glutathionylation of all unlabeled and labeled protein content was observed.
Labeling of Lysozyme with Pyridinium Salt 2b (Lysozyme-2b Conjugate). Labeling of lysozyme (14.3 kDa) with the pyridinium salt 2b was performed by following general procedure B using the following solutions: lysozyme (19 μL, 262 μM, 10 μM final concentration), 2b (181 μL, 554 μM, 200 μM final concentration), NH4OAc (50 μL, 200 mM, pH=6.9, 20 mM final concentration), glutathione (50 μL, 3 mM, 300 μM final concentration), and water (200 μL) with a 100% intensity irradiation time of 10 minutes. The reaction mixture was analyzed directly by LC/MS using method A and was estimated to have proceeded with 83% conversion. Partial oxidation at biotin obfuscated estimation of both oxidation and glutathionylation. Lysozyme-2b conjugate (retention time (Tr)=2.80-5.17 min).
Labeling of Lysozyme with Pyridinium Salt 2c (Lysozyme-2c Conjugate). Labeling of lysozyme (14.3 kDa) with the pyridinium salt 2c was performed by following general procedure B using the following solutions: lysozyme (19 μL, 262 μM, 10 μM final concentration), pyridinium salt 2c(367 μL, 680 μM, 500 μM final concentration), NH4OAc (50 μL, 200 mM, pH=6.9, 20 mM final concentration), glutathione (50 μL, 3 mM, 300 μM final concentration), and water (14 μL) with a 100% intensity irradiation time of 10 minutes. The reaction mixture was analyzed directly by LC/MS using method A and was estimated to have proceeded with 85% conversion and a 3.7:1 mono:di labeled ratio and 10% glutathionylation of all protein content was observed. Lysozyme-2c conjugate (retention time (Tr)=3.11-5.07 min).
Labeling of Lysozyme with Pyridinium Salt 2d (Lysozyme-2d Conjugate). Labeling of lysozyme (14.3 kDa) with the pyridinium salt 2d was performed by following general procedure B using the following solutions: Lysozyme (16.8 μL, 0.297 mM solution in H2O, final concentration […]), pyridinium salt 2d (91.8 μL, 1.09 mM solution in CH3CN/H2O (2:3), final concentration 200 μM), NH4OAc (50 μL, 200 mM in H2O, final concentration 20 mM, pH 6.9), glutathione (15 μL, 10 mMsolution in H2O, final concentration 300 μM), and water (326.4 μL) with a 100% intensity irradiation time of 20 minutes. […]

| water solubility [1] | conversion (lysozyme (14.3 kDa); 10 μM lysozyme, 20 mM NH4OAc pH 6.9, 427 nm, 10 minutes, trifluoroacetate) | glutathionylation of all protein content (lysozyme (14.3 kDa); 10 minutes irradiation) [%] | SMILES | proteome labeling profile, streptavidin-HRP Western blot of elution profiles (HEK293T lysates) | number of proteins identified (from ≥2 unique peptides) with ≥2-fold enrichment versus DMSO (HEK293T lysates) [proteins] |
| --- | --- | --- | --- | --- | --- |
|  |  |  | Cc1cc(C)[n+](N(C)C(=O)OCCCCC[C@@H]2SC[C@@H]3NC(=O)N[C@@H]32)c(C)c1 [Pyridinium salt 1a, 2,4,6-trimethyl-1-(methyl(((5-((3aS,4S,6aR)-2-oxohexahydro-1H-thieno[3,4-d]imidazol-4-yl)pentyl)oxy)carbonyl)amino)pyridin-1-ium tetrafluoroborate] | concentration and optically dependent proteome labeling profiles; also recorded: loss of signal | 185 |
|  |  |  | Cc1cc(-c2ccccc2)cc(C)[n+]1N(C)C(=O)OCCCCC[C@@H]1SC[C@@H]2NC(=O)N[C@@H]21 [Pyridinium salt 1b, 2,6-dimethyl-1-(methyl(((5-((3aS,4S,6aR)-2-oxohexahydro-1H-thieno[3,4-d]imidazole-4-yl)pentyl)oxy)carbonyl)amino)-4-phenylpyridin-1-ium tetrafluoroborate] | concentration and optically dependent proteome labeling profiles; also recorded: dose-response profiles | 365 |
| superior water solubility | 85% and 86% | 10 | COc1ccc2cc(-c3cc(C)[n+](N(C)C(=O)OCCCCCC[C@H]4NC(=O)N[C@H]4C)c(C)c3)ccc2c1 [Pyridinium salt 2c, 4-(6-methoxynaphthalen-2-yl)-2,6-dimethyl-1-(methyl(((6-((4R,5S)-5-methyl-2-oxoimidazolidin-4-yl)hexyl)oxy)carbonyl)amino)pyridin-1-ium trifluoroacetate] |  |  |
